Experimental data from the NIST ThermoML archive (doi:10.1016/j.jct.2014.02.016).

Assays:
[1] = heat capacity at constant pressure per volume; xn = mol fraction of the nth substance listed; details: 100 kPa, Liquid, DSC Calorimetry, x1 = 0.284
[2] = refractive index (other wavelength) (dimensionless); xn = mol fraction of the nth substance listed; details: 100 kPa, Liquid, Wavelength=632.8 nm, Angle minimization by sell rotation

CCCCCCCCCCC [undecane] + COC(=O)OC
[1]
Details	heat capacity [J/K/m3]
293.3 K	2050000
293.4 K	2009000
293.5 K	1982000
293.6 K	1953000
293.8 K	1939000
294 K	1925000
294.5 K	1897000
296 K	1878000
297 K	1848000
298 K	1846000
299 K	1832000
300 K	1824000
301 K	1822000
302 K	1818000
303 K	1818000
304 K	1814000
305 K	1810000
306 K	1806000
307 K	1805000
308 K	1803000
309 K	1801000
310 K	1800000
311 K	1797000
312 K	1796000
313 K	1795000
314 K	1793000
315 K	1792000
316 K	1790000
317 K	1789000
318 K	1788000
319 K	1787000
320.01 K	1787000
321 K	1786000
322 K	1785000
323 K	1784000
324.01 K	1783000
325 K	1782000
326 K	1782000
327 K	1780000
328.01 K	1780000
329 K	1780000
330 K	1779000
331 K	1778000
332 K	1778000
333 K	1777000

[2]
Details	refractive index
283.01 K, x1 = 0.087	1.3791
283.01 K, x1 = 0.62	1.4074
284.23 K, x1 = 0.094	1.3791
284.23 K, x1 = 0.602	1.4062
285.47 K, x1 = 0.102	1.3791
285.47 K, x1 = 0.58	1.4048
286.63 K, x1 = 0.11	1.3791
286.63 K, x1 = 0.56	1.4035
287.73 K, x1 = 0.118	1.3792
287.73 K, x1 = 0.539	1.4022
288.79 K, x1 = 0.129	1.3795
288.79 K, x1 = 0.515	1.4008
289.51 K, x1 = 0.137	1.3797
289.51 K, x1 = 0.496	1.3997
290.19 K, x1 = 0.147	1.3801
290.19 K, x1 = 0.475	1.3985
290.77 K, x1 = 0.157	1.3805
290.77 K, x1 = 0.46	1.3976
291.19 K, x1 = 0.165	1.3809
291.19 K, x1 = 0.442	1.3966
291.49 K, x1 = 0.173	1.3813
291.49 K, x1 = 0.431	1.396
291.71 K, x1 = 0.179	1.3816
291.71 K, x1 = 0.418	1.3953
291.9 K, x1 = 0.186	1.382
291.9 K, x1 = 0.409	1.3948
292.05 K, x1 = 0.193	1.3824
292.05 K, x1 = 0.398	1.3942
292.17 K, x1 = 0.198	1.3827
292.17 K, x1 = 0.391	1.3938
292.25 K, x1 = 0.202	1.3829
292.25 K, x1 = 0.383	1.3934
292.33 K, x1 = 0.207	1.3832
292.33 K, x1 = 0.376	1.393
292.39 K, x1 = 0.212	1.3835
292.39 K, x1 = 0.371	1.3927
292.44 K, x1 = 0.217	1.3838
292.44 K, x1 = 0.365	1.3924
292.49 K, x1 = 0.22	1.384
292.49 K, x1 = 0.36	1.3921
292.52 K, x1 = 0.225	1.3843
292.52 K, x1 = 0.352	1.3917
292.56 K, x1 = 0.228	1.3845
292.56 K, x1 = 0.349	1.3915
292.59 K, x1 = 0.235	1.3849
292.59 K, x1 = 0.341	1.3911
292.62 K, x1 = 0.238	1.3851
292.62 K, x1 = 0.336	1.3908
292.64 K, x1 = 0.243	1.3854
292.64 K, x1 = 0.331	1.3905
292.65 K, x1 = 0.246	1.3856
292.65 K, x1 = 0.327	1.3903
292.66 K, x1 = 0.251	1.3859
292.66 K, x1 = 0.322	1.39
292.67 K, x1 = 0.255	1.3861
292.67 K, x1 = 0.258	1.3863
292.67 K, x1 = 0.314	1.3896
292.67 K, x1 = 0.318	1.3898
292.68 K, x1 = 0.261	1.3865
292.68 K, x1 = 0.263	1.3866
292.68 K, x1 = 0.266	1.3868
292.68 K, x1 = 0.304	1.389
292.68 K, x1 = 0.307	1.3892
292.68 K, x1 = 0.311	1.3894
303.3 K, x1 = 0.102	1.3708
303.3 K, x1 = 0.2	1.3776
303.3 K, x1 = 0.299	1.3835
303.3 K, x1 = 0.388	1.3891
303.3 K, x1 = 0.5	1.3932
303.3 K, x1 = 0.586	1.3967
303.3 K, x1 = 0.701	1.4014
303.3 K, x1 = 0.793	1.4041
303.3 K, x1 = 0.905	1.4085
